Measurements reported in publication PMC12284850, “In Silico Design of Antimicrobial Peptides against Carbapenem-Resistant Infections with Enhanced Activity by Nanoformulation” (ACS Applied Bio Materials, 2025).
In brackets after ≈: the same amount, converted by molar mass. Where a SMILES comes first, the peptide text is derived from it.

Key:
E. coil ATCC25922 = type: cell-based, E. coli
Method: (§1) The broth microdilution procedure involves preparing CAMHB broth, a bacterial suspension adjusted to McFarland 0.5 (1.5 × 10^8 CFU/mL) and diluted 200×, and a drug solution at 2× the final target concentration. To achieve a 400× final bacterial dilution, add 100 μL of the drug at different doses to a 96-well plate, then 100 μL of the diluted bacterial culture. Measure the initial absorbance (0 h), incubate at 37 °C for 16–18 h, and measure the final absorbance. With no change in absorbance, the MIC signifies the absence of bacterial growth.

[1] = test system: A. baumannii ATCC BAA-747; type: cell-based
Method: as §1

A. baumannii ATCC19606 = type: cell-based
Method: as §1

E. faecalis ATCC 29212 = type: cell-based
Method: as §1

[2] = test system: K. pneumoniae ATCC BAA-1705; type: cell-based
Method: as §1

[3] = test system: K. pneumoniae ATCCC700603; type: cell-based
Method: as §1

P. aeruginosa ATCC27853 = type: cell-based
Method: as §1

S. aureus ATCC25923 = type: cell-based
Method: as §1

S. aureus ATCC29213 = type: cell-based
Method: as §1

S. aureus ATCC33592 = type: cell-based
Method: as §1

S. aureus ATCC700698 = type: cell-based
Method: as §1

CRAB isolate AB-01 = type: cell-based, A. baumannii
Description: (§2) The blood samples of patients from Kaohsiung Medical University were used to collect and cryopreserve all of the CRAB clinical isolates. Analytical graded chemicals and reagents were utilized throughout the investigation. The T2–02 peptide (MW 2646.27 Da) was custom-synthesized by Kelowna International Scientific Inc., 1,2-[…]-sn-glycero-3-phosphoethanolamine-N-[methoxy(polyethylene glycol)-2000] (ammonium salt) (DSPE-PEG2000, MW 2693.285 Da) was purchased from Laysan Bio Inc., 1,2-Dioleoyl-sn-glycero-3-phosphocholine (DOPC, MW 786.1 Da) was acquired from BroadPharm, and Poly-L-lysine hydrobromide (30–70 kDa) was sourced from Sigma-Aldrich.
as §1

CRAB isolate AB-02 = type: cell-based, A. baumannii
Description: as §2, §1

CRAB isolate AB-03 = type: cell-based, A. baumannii
Description: as §2, §1

CRAB isolate AB-04 = type: cell-based, A. baumannii
Description: as §2, §1

CRAB isolate AB-05 = type: cell-based, A. baumannii
Description: as §2, §1

CRAB isolate AB-06 = type: cell-based, A. baumannii
Description: as §2, §1

CRAB isolate AB-07 = type: cell-based, A. baumannii
Description: as §2, §1

CRAB isolate AB-08 = type: cell-based, A. baumannii
Description: as §2, §1

CRAB isolate AB-09 = type: cell-based, A. baumannii
Description: as §2, §1

CRAB isolate AB-10 = type: cell-based, A. baumannii
Description: as §2, §1

CRAB isolate AB-11 = type: cell-based, A. baumannii
Description: as §2, §1

CRAB isolate AB-12 = type: cell-based, A. baumannii
Description: as §2, §1

CRAB isolate AB-13 = type: cell-based, A. baumannii
Description: as §2, §1

CRAB isolate AB-14 = type: cell-based, A. baumannii
Description: as §2, §1

CRAB isolate AB-15 = type: cell-based, A. baumannii
Description: as §2, §1

CRAB isolate AB-16 = type: cell-based, A. baumannii
Description: as §2, §1

CRAB isolate AB-17 = type: cell-based, A. baumannii
Description: as §2, §1

CRAB isolate AB-18 = type: cell-based, A. baumannii
Description: as §2, §1

CRAB isolate AB-19 = type: cell-based, A. baumannii
Description: as §2, §1

CRAB isolate AB-20 = type: cell-based, A. baumannii
Description: as §2, §1

CRAB isolate AB-21 = type: cell-based, A. baumannii
Description: as §2, §1

CRAB isolate AB-22 = type: cell-based, A. baumannii
Description: as §2, §1

CRAB isolate AB-23 = type: cell-based, A. baumannii
Description: as §2, §1

CRAB isolate AB-24 = type: cell-based, A. baumannii
Description: as §2, §1

Gram-positive bacteria = test: MIC against Gram-positive bacteria; type: cell-based; settings: broth microdilution
Method: as §1

HK-2 cells = test: Cytotoxicity assay (MTT); type: cell-based
Method: (§3) We tested the cytotoxicity of several antibiotic compounds, including peptides and nanoparticles, on the human embryonic kidney cell lines HEK-293, HK-2, and […]. The cells were stored in DMEM medium and incubated at 37 °C with 5% CO2 in a humidifying environment. Using the MTT (methylthiazolyldiphenyl-tetrazolium bromide) test, cell viability was evaluated. Following a 5 × 10^3 cell/mL seeding in 96-well plates, the cells were exposed to 100 μL of samples at varying concentrations (12.5–200 μM) during 72 h at 37 °C. Later, each well is loaded with MTT solution (5 mg/mL in PBS) at a volume of 10 μL. The plates were left in the dark for 4 h. After forming formazan crystals due to the action of mitochondrial reductases in living cells, the crystals were dissolved using a solubilizing solution (pH 4.7, 40% dimethylformamide, 2% glacial acetic acid, and 16% sodium dodecyl sulfate) were shaken at 150 rpm and incubated for an hour at 37 °C. Using graphical plot analysis, the IC50 value–the concentration that results in 50% cell death–was obtained by measuring the absorbance of the dissolved formazan at 570 nm. The average of three independent tests, each carried out in triplicate, was used to display the results.

HEK293 = type: cell-based, human; settings: 72 h
Method: as §3

THP-1 = type: cell-based; settings: 72 h

Work on `CC[C@H](C)[C@H](NC(=O)[C@H](CCCCN)NC(=O)CNC(=O)[C@H](CCCNC(=N)N)NC(=O)[C@H](CCCNC(=N)N)NC(=O)[C@H](CCCCN)NC(=O)[C@H](CC(C)C)NC(=O)[C@H](CC(C)C)NC(=O)[C@H](CCCNC(=N)N)NC(=O)[C@H](CCCCN)NC(=O)[C@H](Cc1c[nH]c2ccccc12)NC(=O)[C@H](CC(C)C)NC(=O)[C@H](C)N)C(=O)N[C@H](C(=O)N[C@@H](CC(C)C)C(=O)N[C@@H](CC(N)=O)C(=O)N[C@@H](CCC(=O)O)C(=O)N[C@@H](CCCNC(=N)N)C(=O)N[C@@H](CC(C)C)C(=O)N[C@@H](CCCNC(=N)N)C(=O)N[C@@H](CC(C)C)C(=O)O)[C@@H](C)CC` [T2–02] (H-ALWKRLLKRRGKIILNERLRL-OH) yielded an MIC (E. coil ATCC25922) of 64 µg/mL (≈ 24.2 µM), an MIC [1] of 8 µg/mL (≈ 3.02 µM) and an MIC (A. baumannii ATCC19606) of 8 µg/mL (≈ 3.02 µM). It also gave an MIC (E. faecalis ATCC 29212) of 64 µg/mL (≈ 24.2 µM), an MIC [2] of 512 µg/mL (≈ 193 µM) and an MIC [3] of 128 µg/mL (≈ 48.4 µM). The MIC (P. aeruginosa ATCC27853) was 8 µg/mL (≈ 3.02 µM), the MIC (S. aureus ATCC25923) was 256 µg/mL (≈ 96.7 µM) and the MIC (S. aureus ATCC29213) was 64 µg/mL (≈ 24.2 µM). For the same compound, the MIC (S. aureus ATCC33592) was 256 µg/mL (≈ 96.7 µM), the MIC (S. aureus ATCC700698) was 256 µg/mL (≈ 96.7 µM) and the MIC (CRAB isolate AB-01) was 8 µg/mL (≈ 3.02 µM). It also gave an MIC (CRAB isolate AB-02) of 8 µg/mL (≈ 3.02 µM), an MIC (CRAB isolate AB-03) of 4 µg/mL (≈ 1.51 µM) and an MIC (CRAB isolate AB-04) of 8 µg/mL (≈ 3.02 µM). For the same compound, the MIC (CRAB isolate AB-05) was 8 µg/mL (≈ 3.02 µM), the MIC (CRAB isolate AB-06) was 8 µg/mL (≈ 3.02 µM) and the MIC (CRAB isolate AB-07) was 8 µg/mL (≈ 3.02 µM). For the same compound, the MIC (CRAB isolate AB-08) was 8 µg/mL (≈ 3.02 µM), the MIC (CRAB isolate AB-09) was 8 µg/mL (≈ 3.02 µM) and the MIC (CRAB isolate AB-10) was 8 µg/mL (≈ 3.02 µM). It also gave an MIC (CRAB isolate AB-11) of 8 µg/mL (≈ 3.02 µM), an MIC (CRAB isolate AB-12) of 16 µg/mL (≈ 6.05 µM) and an MIC (CRAB isolate AB-13) of 4 µg/mL (≈ 1.51 µM). It also gave an MIC (CRAB isolate AB-14) of 8 µg/mL (≈ 3.02 µM), an MIC (CRAB isolate AB-15) of 8 µg/mL (≈ 3.02 µM) and an MIC (CRAB isolate AB-16) of 16 µg/mL (≈ 6.05 µM). For the same compound, the MIC (CRAB isolate AB-17) was 8 µg/mL (≈ 3.02 µM), the MIC (CRAB isolate AB-18) was 16 µg/mL (≈ 6.05 µM) and the MIC (CRAB isolate AB-19) was 8 µg/mL (≈ 3.02 µM). It also gave an MIC (CRAB isolate AB-20) of 8 µg/mL (≈ 3.02 µM), an MIC (CRAB isolate AB-21) of 8 µg/mL (≈ 3.02 µM) and an MIC (CRAB isolate AB-22) of 8 µg/mL (≈ 3.02 µM). For the same compound, the MIC (CRAB isolate AB-23) was 8 µg/mL (≈ 3.02 µM), the MIC (CRAB isolate AB-24) was 8 µg/mL (≈ 3.02 µM) and the “MIC against Gram-positive bacteria (range)” value (Gram-positive bacteria) was 64 to 256 µg/mL. The “Cytotoxicity HK-2 related to PMB” value (HK-2 cells) was 30.9, the “IC50 HK-2” value (HK-2 cells; concentration causing 50% cell death, MTT, 72 h, 37 °C, average of three independent tests in triplicate) was 557 µg/mL (≈ 210 µM) and the “IC50 HEK293” value (HEK293) was 1101 µg/mL (≈ 416 µM). For the same compound, the “IC50 THP-1” value (THP-1) was 866 µg/mL (≈ 327 µM).
